# Numbered stars: 1 amine (or outer) side, 2 acyl side, 3 side chain; on linkers, the order of the positions; unused ones are H or OH. Bridge positions count the residues as written; N and C are the ends. Square brackets hold non-standard residues; d marks the D form. Peptide text beside a SMILES is read from it. * marks the point of attachment. hPhe(3,5-F2-4-CF3) = N[C@@H](CCc1cc(F)c(C(F)(F)F)c(F)c1)C(=O)O; hPhe(3-Cl-4-CF3) = N[C@@H](CCc1ccc(C(F)(F)F)c(Cl)c1)C(=O)O; hPhe(3-F,4-CF3) = N[C@@H](CCc1ccc(C(F)(F)F)c(F)c1)C(=O)O; NEtAsp = CCN([C@@H](CC(=O)[*:3])C(=O)[*:2])[*:1]; 3Oxa8azabicyclo(3.2.1)octane = C1CC2COCC1N2*; NEtPhe(4-Me) = CCN[C@@H](Cc1ccc(C)cc1)C(=O)O; NMePhe(4-Cl) = CN[C@@H](Cc1ccc(Cl)cc1)C(=O)O; NMePhe(4-Me) = CN[C@@H](Cc1ccc(C)cc1)C(=O)O; NMedβ3hAla = C[C@H](CC(=O)[*:2])N(C)[*:1]; NMeGly(cPent) = CN[C@H](C(=O)O)C1CCCC1; Phe(3-I) = N[C@@H](Cc1cccc(I)c1)C(=O)O; Pro(4,4-F2) = O=C(O)[C@@H]1CC(F)(F)CN1; NMeGly(cBu) = CN[C@H](C(=O)O)C1CCC1; NMeCha = CN[C@@H](CC1CCCCC1)C(=O)O; NMehLeu = CN[C@@H](CCC(C)C)C(=O)O; X82 = O=C(CN(CCC1CNC1)[*:1])[*:2]; Hyp = O=C(O)[C@@H]1C[C@@H](O)CN1; NEtLeu = CCN[C@@H](CC(C)C)C(=O)O; NMeChg = CN[C@H](C(=O)O)C1CCCCC1; NMeF = CN[C@@H](Cc1ccccc1)C(=O)O; NMeI = CC[C@H](C)[C@H](NC)C(=O)O; N(CH2CH2)2CF2 = FC1(F)CCN(*)CC1; NMeD = CN[C@@H](CC(=O)O)C(=O)O; NMeL = CN[C@@H](CC(C)C)C(=O)O; dNMeAbu = CC[C@@H](NC)C(=O)O; NMeV = CN[C@H](C(=O)O)C(C)C; d(β3hA) = C[C@@H](N)CC(=O)O; NMeS = CN[C@@H](CO)C(=O)O; NMeA = CN[C@@H](C)C(=O)O; NMeAib = CNC(C)(C)C(=O)O; Piperidide = C1CCN(*)CC1; Pyrrolidide = C1CCN(*)C1; Ac5c = NC1(C(=O)O)CCCC1; Aze = O=C(O)[C@@H]1CCN1; Ac4c = NC1(C(=O)O)CCC1; X80 = FC1(F)CCCN(*)C1; NEtG = CCNCC(=O)O; Sar = CNCC(=O)O; Propyl = CCC*
# Biological target: protein-protein interaction between Kras and SOS1 (biotin-tagged human Kras loaded with GDP, His-tagged human SOS1) (Homo sapiens (Human), UniProt P01116, G12D)
# Experiment: Protein-protein interaction inhibition between Kras and SOS1 (KrasG12D-SOS PPI) using AlphaScreen;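 also: kras produced in E. coli, Ni-coupled donor beads and streptavidin acceptor beads, excitation 680 nm with emission detected at 520–620 nm via singlet oxygen transfer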
# Type: biochemical
# Conditions: not given
row,Compound,IC50 [nM]
1,"CC[C@H](C)[C@@H]1NC(=O)[C@H](CC(C)C)N(C)C(=O)C[C@@H](C(=O)N2CCCC(F)(F)C2)N(C)C(=O)[C@H](CC(C)C)NC(=O)C(C)(C)N(C)C(=O)[C@H](Cc2ccc(OC)cc2)NC(=O)[C@H](Cc2cccc(I)c2)NC(=O)CN(C)C(=O)[C@H](Cc2ccc(C)cc2)N(C)C(=O)CN(C)C(=O)CN(C)C1=O [Compound 2099, (3S,9S,12S,18S,27S,30S,34S)-34-(3,3-difluoropiperidine-1-carbonyl)-12-[(3-iodophenyl)methyl]-3,30-diisobutyl-9-[(4-methoxyphenyl)methyl]-1,6,6,7,16,19,22,25,31-nonamethyl-27-[(1S)-1-methylpropyl]-18-(p-tolylmethyl) 1,4,7,10,13,16,19,22,25,28,31-undecazacyclotetratriacontane-2,5,8,11,14,17,20,23,26,29,32-undecone] ([NMeL]I[Sar][Sar][NMePhe(4-Me)][Sar][Phe(3-I)]Y(Me)[NMeAib]L[NMeD]-X80; lactam N-11)",25

# Same assay, conditions: AlphaScreen; biotin-tagged human Kras loaded with GDP, His-tagged human SOS1; read-out: KRAS G12D-SOS PPI IC50
row,Compound,IC50 [nM]
1,CC[C@@H]1C(=O)NC2(CCCC2)C(=O)N(C)[C@@H](C2CCCC2)C(=O)N(C)[C@H](C(=O)N2CCCCC2)CC(=O)N(C)[C@@H](CC(C)C)C(=O)N[C@@H]([C@@H](C)CC)C(=O)N(C)CC(=O)N(C)CC(=O)N(C)[C@@H](CC2CCCCC2)C(=O)N(C)CC(=O)N[C@@H](CCc2ccc(C(F)(F)F)c(Cl)c2)C(=O)N1C [Compound 1439] ([NMeL]I[Sar][Sar][NMeCha][Sar][hPhe(3-Cl-4-CF3)][dNMeAbu][Ac5c][NMeGly(cPent)][NMeD]-Piperidide; lactam N-11),3.7
2,CC[C@H](C)[C@@H]1NC(=O)[C@H](CC(C)C)N(C)C(=O)C[C@@H](C)N(C)C(=O)[C@H](C(C)C)N(C)C(=O)C2(CCCC2)NC(=O)[C@H](CC(=O)N2CCC(F)(F)CC2)N(C)C(=O)[C@H](CCc2ccc(C(F)(F)F)c(Cl)c2)NC(=O)CN(C)C(=O)[C@H](CC2CCCCC2)N(C)C(=O)CN(C)C(=O)CN(C)C1=O [Compound 350] (cyclo([Ac5c][NMeV][NMedβ3hAla][NMeL]I[Sar][Sar][NMeCha][Sar][hPhe(3-Cl-4-CF3)][NMeD](N(CH2CH2)2CF2))),64
3,"CC[C@H](C)[C@@H]1NC(=O)[C@H](CC(C)C)N(C)C(=O)C[C@@H](C(=O)N(C)C)N(C)C(=O)[C@H](C2CCCC2)N(C)C(=O)C2(CCCC2)NC(=O)CN(CCC2CNC2)C(=O)[C@H](CCc2ccc(C(F)(F)F)c(F)c2)NC(=O)CN(C)C(=O)[C@H](CC2CCCCC2)N(C)C(=O)[C@@H]2CCN2C(=O)[C@H](C)N(C)C1=O [Compound 2182, (3S,6S,9S,13S,16S,25S,31S,34S)-23-[2-(azetidin-3-yl)ethyl]-31-(cyclohexylmethyl)-16-cyclopentyl-25-[2-[3-fluoro-4-(trifluoromethyl)phenyl]ethyl]-9-isobutyl-N,N,3,4,10,14,17,29,32-nonamethyl-6-[(1S)-1-methylpropyl]-2,5,8,11,15,18,21,24,27,30,33-undecaoxo-spiro[1,4,7,10,14,17,20,23,26,29,32-undecazabicyclo[32.2.0]hexatriacontane-19,1′-cyclopentane]-13-carboxamide] ([NMeL]I[NMeA][Aze][NMeCha][Sar][hPhe(3-F,4-CF3)][X82][Ac5c][NMeGly(cPent)][NMeD]-NMe2; lactam N-11)",3.6
4,CC[C@H](C)[C@@H]1NC(=O)[C@H](CCC(C)C)N(C)C(=O)C[C@@H](C(=O)N2CCCCC2)N(C)C(=O)[C@H](C(C)C)N(C)C(=O)C2(CCCC2)NC(=O)[C@@H]2CCCN2C(=O)[C@H](CCc2ccc(C(F)(F)F)c(Cl)c2)NC(=O)CN(C)C(=O)[C@H](CC2CCCCC2)N(C)C(=O)[C@@H]2CCN2C(=O)[C@H](C)N(C)C1=O [Compound 1833] ([NMehLeu]I[NMeA][Aze][NMeCha][Sar][hPhe(3-Cl-4-CF3)]P[Ac5c][NMeV][NMeD]-Piperidide; lactam N-11),7.5
5,CC[C@H](C)[C@@H]1NC(=O)[C@H](CC(C)C)N(C)C(=O)C[C@@H](C)NC(=O)[C@H](C(C)C)N(C)C(=O)C2(CCCC2)NC(=O)[C@@H]2CCCN2C(=O)[C@H](CCc2ccc(C(F)(F)F)c(Cl)c2)NC(=O)CN(C)C(=O)[C@H](CC2CCCCC2)N(C)C(=O)[C@@H]2CCN2C(=O)[C@@H]2CCN2C1=O [Compound 181] (cyclo([Ac5c][NMeV][d(β3hA)][NMeL]I[Aze][Aze][NMeCha][Sar][hPhe(3-Cl-4-CF3)]P)),130
6,CC[C@H](C)[C@@H]1NC(=O)[C@H](C)N(C)C(=O)C[C@@H](C)N(C)C(=O)[C@H](C2CCCCC2)N(C)C(=O)C(C)(C)N(C)C(=O)[C@@H]2CCCN2C(=O)[C@H](CCc2ccc(C(F)(F)F)c(Cl)c2)NC(=O)CN(C)C(=O)[C@H](CC2CCCCC2)N(C)C(=O)[C@@H]2CCN2C(=O)[C@H](C)N(C)C1=O [Compound 2155] (cyclo([Aze][NMeCha][Sar][hPhe(3-Cl-4-CF3)]P[NMeAib][NMeChg][NMedβ3hAla][NMeA]I[NMeA])),28
7,CC[C@H](C)[C@@H]1NC(=O)[C@H](CC(C)C)N(C)C(=O)C[C@@H](C(=O)N2CCCC2)N(C)C(=O)[C@H](C(C)C)N(C)C(=O)C2(CCCC2)NC(=O)[C@@H]2CCCN2C(=O)[C@H](CCc2ccc(C(F)(F)F)c(Cl)c2)NC(=O)CN(C)C(=O)[C@H](CC2CCCCC2)N(C)C(=O)[C@@H]2CCN2C(=O)CN(C)C1=O [Compound 1670] ([NMeL]I[Sar][Aze][NMeCha][Sar][hPhe(3-Cl-4-CF3)]P[Ac5c][NMeV][NMeD]-Pyrrolidide; lactam N-11),1
8,"CC[C@H](C)[C@@H]1NC(=O)[C@H](CC(C)C)N(C)C(=O)C[C@@H](C)N(C)C(=O)[C@H](C2CCCCC2)N(C)C(=O)C2(CCC2)NC(=O)[C@@H]2CC(F)(F)CN2C(=O)[C@H](CCc2cc(F)c(C(F)(F)F)c(F)c2)NC(=O)CN(C)C(=O)[C@H](Cc2ccc(C)cc2)N(CC)C(=O)[C@@H]2CCN2C(=O)[C@H](C)N(C)C1=O [Compound 475] (cyclo([Ac4c][NMeChg][NMedβ3hAla][NMeL]I[NMeA][Aze][NEtPhe(4-Me)][Sar][hPhe(3,5-F2-4-CF3)][Pro(4,4-F2)]))",51
9,"CC[C@H](C)[C@@H]1NC(=O)[C@H](C)N(C)C(=O)C[C@@H](C)NC(=O)[C@H](CC(C)C)N(C)C(=O)[C@H](Cc2ccccc2)N(C)C(=O)[C@H](CC(C)C)NC(=O)[C@H](CCc2ccc(C(F)(F)F)c(F)c2)NC(=O)CN(C)C(=O)[C@H](Cc2ccc(Cl)cc2)N(C)C(=O)CN(C)C(=O)CN(C)C1=O [Compound 2093] (cyclo(I[Sar][Sar][NMePhe(4-Cl)][Sar][hPhe(3-F,4-CF3)]L[NMeF][NMeL][d(β3hA)][NMeA]))",37
10,CC[C@H](C)[C@@H]1NC(=O)[C@H](CC(C)C)N(C)C(=O)C[C@@H](C(=O)N(C)C)N(C)C(=O)[C@H](C2CCCCC2)N(C)C(=O)C2(CCCC2)NC(=O)[C@@H]2CCCN2C(=O)[C@H](CCc2ccc(C(F)(F)F)c(Cl)c2)NC(=O)CN(C)C(=O)[C@H](CC2CCCCC2)N(C)C(=O)[C@@H]2CCN2C(=O)[C@H](C)N(C)C1=O [Compound 1675] ([NMeL]I[NMeA][Aze][NMeCha][Sar][hPhe(3-Cl-4-CF3)]P[Ac5c][NMeChg][NMeD]-NMe2; lactam N-11),1.2
11,CC[C@H](C)[C@@H]1NC(=O)[C@H](CC(C)C)N(C)C(=O)C[C@@H](C(=O)N2CCCCC2)N(C)C(=O)[C@H](C2CCCCC2)N(C)C(=O)C2(CCCC2)NC(=O)CN(CC)C(=O)[C@H](CCc2ccc(C(F)(F)F)c(Cl)c2)NC(=O)CN(C)C(=O)[C@H](CC2CCCCC2)N(C)C(=O)CN(C)C(=O)CN(C)C1=O [Compound 160] ([NMeL]I[Sar][Sar][NMeCha][Sar][hPhe(3-Cl-4-CF3)][NEtG][Ac5c][NMeChg][NMeD]-Piperidide; lactam N-11),1
12,CCCOC[C@H]1C(=O)N(C)CC(=O)N[C@@H](CCc2ccc(C(F)(F)F)c(Cl)c2)C(=O)N2CCC[C@H]2C(=O)NC2(CCCC2)C(=O)N(C)[C@@H](C2CCCC2)C(=O)N(C)[C@H](C(=O)N2C3CCC2COC3)CC(=O)N(CC)[C@@H](CC(C)C)C(=O)N[C@@H]([C@@H](C)CC)C(=O)N[C@@H](C)C(=O)N2CC[C@H]2C(=O)N1C [Compound 1167] ([NEtLeu]IA[Aze][NMeS](Propyl)[Sar][hPhe(3-Cl-4-CF3)]P[Ac5c][NMeGly(cPent)][NMeD]-{3Oxa8azabicyclo(3.2.1)octane}; lactam N-11),8.7
13,"CCCOC[C@H]1C(=O)N(C)CC(=O)N[C@@H](CCc2cc(F)c(C(F)(F)F)c(F)c2)C(=O)N2CCC[C@H]2C(=O)NC2(CCCC2)C(=O)N(C)[C@@H](C2CCCC2)C(=O)N(C)[C@H](C(=O)N2C3CCC2COC3)CC(=O)N(C)[C@@H](CC(C)C)C(=O)N[C@@H]([C@@H](C)CC)C(=O)N(C)[C@@H](C)C(=O)N2CC[C@H]2C(=O)N1C [Compound 1355] ([NMeL]I[NMeA][Aze][NMeS](Propyl)[Sar][hPhe(3,5-F2-4-CF3)]P[Ac5c][NMeGly(cPent)][NMeD]-{3Oxa8azabicyclo(3.2.1)octane}; lactam N-11)",3.2
14,CC[C@H](C)[C@@H]1NC(=O)[C@H](CC(C)C)N(C)C(=O)C[C@@H](C(=O)N2CCCCC2)N(CC)C(=O)[C@H](C2CCCC2)N(C)C(=O)C2(CCCC2)NC(=O)[C@@H]2CCCN2C(=O)[C@H](CCc2ccc(C(F)(F)F)c(Cl)c2)NC(=O)CN(C)C(=O)[C@H](C2CCC2)N(C)C(=O)[C@@H]2CCN2C(=O)[C@H](C)N(C)C1=O [Compound 1047] ([NMeL]I[NMeA][Aze][NMeGly(cBu)][Sar][hPhe(3-Cl-4-CF3)]P[Ac5c][NMeGly(cPent)][NEtAsp]-Piperidide; lactam N-11),6.3
15,CCO[C@@H]1C[C@H]2C(=O)NC3(CCCC3)C(=O)N(C)[C@@H]([C@@H](C)CC)C(=O)N(C)[C@H](C)CC(=O)N(C)[C@@H](CC(C)C)C(=O)N[C@@H]([C@@H](C)CC)C(=O)N(C)[C@@H](C)C(=O)N3CC[C@H]3C(=O)N(CC)[C@@H](Cc3ccc(C)cc3)C(=O)N(C)CC(=O)N[C@@H](CCc3ccc(C(F)(F)F)c(Cl)c3)C(=O)N2C1 [Compound 951] (cyclo([Ac5c][NMeI][NMedβ3hAla][NMeL]I[NMeA][Aze][NEtPhe(4-Me)][Sar][hPhe(3-Cl-4-CF3)][Hyp](Et))),7.9
